Values of other authors, collected in PMC11876601 (Molecular Systems Biology, 2025).
Read-outs that look alike come from different tables or passages of the source.

Legend:
CHEK1 = conditions: cited from earlier work; for Kd: read-out: KDapp
MAP3K6 = test system: MAP3K6; parameters: method as in Klaeger et al. (2017); conditions: lysate 4 cell line mix (Colo205, K-562, MV-4-11, and SK-N-BE(2)), Kinobeads y, ref Klaeger et al. (2017); cited from earlier work
TNK1 = conditions: cited from earlier work
FER = conditions: cited from earlier work
TNK2 = conditions: cited from earlier work
MAP2K5 = test system: MAP2K5; parameters: method as in Klaeger et al. (2017); conditions: lysate 4 cell line mix (Colo205, K-562, MV-4-11, and SK-N-BE(2)), Kinobeads y, ref Klaeger et al. (2017); cited from earlier work
SIK2 = conditions: cited from earlier work
CAMK2D = conditions: cited from earlier work
ERN1 = conditions: cited from earlier work
MARK4 = conditions: cited from earlier work
AURKA = conditions: cited from earlier work
PRKD2 = conditions: cited from earlier work
IRAK4 = conditions: cited from earlier work
MAP4K1 = conditions: cited from earlier work
MAPK10 = conditions: cited from earlier work
RPS6KA4 = conditions: cited from earlier work
STK3 = test system: STK3; parameters: method as in Klaeger et al. (2017); conditions: STK3, 4 cell line mix lysate, Kinobeads y, ref Klaeger et al. (2017); cited from earlier work
MAP4K5 = test system: MAP4K5; parameters: method as in Klaeger et al. (2017); conditions: MAP4K5, 4 cell line mix lysate, Kinobeads y, ref Klaeger et al. (2017); cited from earlier work
CDK2 = test system: CDK2; parameters: method as in Klaeger et al. (2017); conditions: CDK2, 4 cell line mix lysate, Kinobeads y, ref Klaeger et al. (2017); cited from earlier work
TBKBP1 = conditions: TBKBP1, 5 cell line mix lysate, Kinobeads ε, ref Reinecke et al. (2023), cited from earlier work
CAMKK2 = test system: CAMKK2; parameters: method as in Reinecke et al. (2023); conditions: CAMKK2, 5 cell line mix lysate, Kinobeads ε, ref Reinecke et al. (2023), cited from earlier work
PTK6 = test system: PTK6; parameters: method as in Reinecke et al. (2023); conditions: PTK6, 5 cell line mix lysate, Kinobeads ε, ref Reinecke et al. (2023), cited from earlier work
CLK4 = test system: CLK4; parameters: method as in Reinecke et al. (2023); conditions: CLK4, 5 cell line mix lysate, Kinobeads ε, ref Reinecke et al. (2023), cited from earlier work
EGFR = target: EGFR; parameters: method as in Reinecke et al. (2023); conditions: 5 cell line mix lysate, Kinobeads ε, ref Reinecke et al. (2023), cited from earlier work
NUAK1 = test system: NUAK1; parameters: method as in Reinecke et al. (2023); conditions: NUAK1, 5 cell line mix lysate, Kinobeads ε, ref Reinecke et al. (2023); cited from earlier work
MAP3K12 = test system: MAP3K12; parameters: method as in Reinecke et al. (2023); conditions: MAP3K12, 5 cell line mix lysate, Kinobeads ε, ref Reinecke et al. (2023), cited from earlier work
[1] = 4 cell line mix lysate, Kinobeads y, ref Klaeger et al. (2017)
[2] = CHEK1, 5 cell line mix lysate, Kinobeads ε, ref Reinecke et al. (2023)
[3] = TNK1, 5 cell line mix lysate, Kinobeads ε, ref Reinecke et al. (2023)
[4] = 5 cell line mix lysate, Kinobeads ε, ref Reinecke et al. (2023)
[5] = TNK2, 5 cell line mix lysate, Kinobeads ε, ref Reinecke et al. (2023)
[6] = SIK2, 5 cell line mix lysate, Kinobeads ε, ref Reinecke et al. (2023)
[7] = 5 cell line mix lysate, Kinobeads ε, ref Reinecke et al. (2023), read-out: KDapp
[8] = ERN1, 5 cell line mix lysate, Kinobeads ε, ref Reinecke et al. (2023)
[9] = MARK4, 5 cell line mix lysate, Kinobeads ε, ref Reinecke et al. (2023)
[10] = PRKD2, 5 cell line mix lysate, Kinobeads ε, ref Reinecke et al. (2023)
[11] = IRAK4, 5 cell line mix lysate, Kinobeads ε, ref Reinecke et al. (2023)
[12] = MAP4K1, 5 cell line mix lysate, Kinobeads ε, ref Reinecke et al. (2023)
[13] = MAPK10, 5 cell line mix lysate, Kinobeads ε, ref Reinecke et al. (2023)
[14] = RPS6KA4, 5 cell line mix lysate, Kinobeads ε, ref Reinecke et al. (2023)

C[C@]12O[C@H](C[C@]1(O)CO)n1c3ccccc3c3c4c(c5c6ccccc6n2c5c31)CNC4=O [Lestaurtinib]
EC50 (CHEK1; CHEK1, 4 cell line mix lysate, Kinobeads y, ref Klaeger et al. (2017)): […] | EC50 (MAP3K6): 458 nM | EC50 (TNK1; TNK1, 4 cell line mix lysate, Kinobeads y, ref Klaeger et al. (2017)): […] | EC50 (FER; [1]): […] | EC50 (TNK2; TNK2, 4 cell line mix lysate, Kinobeads y, ref Klaeger et al. (2017)): […] | EC50 (MAP2K5): 2050 nM | EC50 (SIK2; SIK2, 4 cell line mix lysate, Kinobeads y, ref Klaeger et al. (2017)): […] | EC50 (CAMK2D; [1]): […] | EC50 (ERN1; ERN1, 4 cell line mix lysate, Kinobeads y, ref Klaeger et al. (2017)): […] | EC50 (MARK4; MARK4, 4 cell line mix lysate, Kinobeads y, ref Klaeger et al. (2017)): […] | EC50 (AURKA; [1]): […] | EC50 (PRKD2; PRKD2, 4 cell line mix lysate, Kinobeads y, ref Klaeger et al. (2017)): […] | EC50 (IRAK4; IRAK4, 4 cell line mix lysate, Kinobeads y, ref Klaeger et al. (2017)): […] | EC50 (MAP4K1; MAP4K1, 4 cell line mix lysate, Kinobeads y, ref Klaeger et al. (2017)): 347 nM | EC50 (MAPK10; MAPK10, 4 cell line mix lysate, Kinobeads y, ref Klaeger et al. (2017)): 33.2 nM | EC50 (RPS6KA4; RPS6KA4, 4 cell line mix lysate, Kinobeads y, ref Klaeger et al. (2017)): […] | EC50 (STK3): 39.2 nM | EC50 (MAP4K5): […] | EC50 (CDK2): […]

COc1cc(N2CCC(N3CCN(C)CC3)CC2)ccc1Nc1ncc(Cl)c(Nc2ccccc2P(C)(C)=O)n1 [Brigatinib]
EC50 (CHEK1; [2]): 70.5 nM | pKDapp (CHEK1; [2]): 7.24 | Kd (CHEK1; [2]): 58.2 nM | Kd (CHEK1; Kinobeads, ref Klaeger et al, 2017a, Reinecke et al, 2023a): 70 nM | EC50 (TBKBP1): 940 nM | pKDapp (TBKBP1): 6.13 | Kd (TBKBP1; read-out: KDapp): 746 nM | EC50 (TNK1; [3]): 1.59 nM | pKDapp (TNK1; [3]): 9.16 | Kd (TNK1; TNK1, 5 cell line mix lysate, Kinobeads ε, ref Reinecke et al. (2023), read-out: KDapp): 0.69 nM | EC50 (FER; [4]): […] | EC50 (TNK2; [5]): 5.93 nM | pKDapp (TNK2; [5]): 8.57 | Kd (TNK2; TNK2, 5 cell line mix lysate, Kinobeads ε, ref Reinecke et al. (2023), read-out: KDapp): 2.67 nM | EC50 (SIK2; [6]): 46.5 nM | pKDapp (SIK2; [6]): 7.62 | Kd (SIK2; SIK2, 5 cell line mix lysate, Kinobeads ε, ref Reinecke et al. (2023), read-out: KDapp): 24.1 nM | EC50 (CAMKK2): 60.9 nM | pKDapp (CAMKK2): 7.39 | Kd (CAMKK2; read-out: KDapp): 40.4 nM | EC50 (PTK6): 85.9 nM | pKDapp (PTK6): 7.38 | Kd (PTK6; read-out: KDapp): 41.5 nM | EC50 (CLK4): 49.2 nM | pKDapp (CLK4): 7.38 | Kd (CLK4; read-out: KDapp): 41.6 nM | Kd (CAMK2D; [7]): 86.4 nM | EC50 (CAMK2D; [4]): 424 nM | pKDapp (CAMK2D; [4]): 7.06 | EC50 (ERN1; [8]): 142 nM | pKDapp (ERN1; [8]): 6.94 | Kd (ERN1; ERN1, 5 cell line mix lysate, Kinobeads ε, ref Reinecke et al. (2023), read-out: KDapp): 115 nM | Kd (EGFR; read-out: KDapp): 146 nM | EC50 (EGFR): 184 nM | pKDapp (EGFR): 6.84 | EC50 (MARK4; [9]): 232 nM | pKDapp (MARK4; [9]): 6.71 | Kd (MARK4; MARK4, 5 cell line mix lysate, Kinobeads ε, ref Reinecke et al. (2023), read-out: KDapp): 193 nM | Kd (AURKA; [7]): 224 nM | EC50 (AURKA; [4]): 634 nM | pKDapp (AURKA; [4]): 6.65 | EC50 (PRKD2; [10]): 361 nM | pKDapp (PRKD2; [10]): 6.62 | Kd (PRKD2; PRKD2, 5 cell line mix lysate, Kinobeads ε, ref Reinecke et al. (2023), read-out: KDapp): 238 nM | EC50 (IRAK4; [11]): 492 nM | pKDapp (IRAK4; [11]): 6.42 | Kd (IRAK4; IRAK4, 5 cell line mix lysate, Kinobeads ε, ref Reinecke et al. (2023), read-out: KDapp): 381 nM | EC50 (MAP4K1; [12]): 716 nM | pKDapp (MAP4K1; [12]): 6.28 | Kd (MAP4K1; MAP4K1, 5 cell line mix lysate, Kinobeads ε, ref Reinecke et al. (2023), read-out: KDapp): 520 nM | EC50 (NUAK1): 532 nM | EC50 (MAP3K12): 1040 nM | pKDapp (MAP3K12): 6.25 | Kd (MAP3K12; read-out: KDapp): 563 nM | EC50 (MAPK10; [13]): 789 nM | pKDapp (MAPK10; [13]): 6.18 | Kd (MAPK10; MAPK10, 5 cell line mix lysate, Kinobeads ε, ref Reinecke et al. (2023), read-out: KDapp): 663 nM | EC50 (RPS6KA4; [14]): 2080 nM | pKDapp (RPS6KA4; [14]): 5.89 | Kd (RPS6KA4; RPS6KA4, 5 cell line mix lysate, Kinobeads ε, ref Reinecke et al. (2023), read-out: KDapp): 1290 nM
